Our source for the IC50 values is patent US20100105661A1, “CONDENSED PYRIDINE COMPOUND” (Astellas Pharma Inc., priority 2007, published 2010).

The target of one test is HERG (Homo sapiens, UniProt Q12809). The test is described as follows: HERG assay. Conditions: low adverse effect.
Sequence of HERG (Q12809 whole entry): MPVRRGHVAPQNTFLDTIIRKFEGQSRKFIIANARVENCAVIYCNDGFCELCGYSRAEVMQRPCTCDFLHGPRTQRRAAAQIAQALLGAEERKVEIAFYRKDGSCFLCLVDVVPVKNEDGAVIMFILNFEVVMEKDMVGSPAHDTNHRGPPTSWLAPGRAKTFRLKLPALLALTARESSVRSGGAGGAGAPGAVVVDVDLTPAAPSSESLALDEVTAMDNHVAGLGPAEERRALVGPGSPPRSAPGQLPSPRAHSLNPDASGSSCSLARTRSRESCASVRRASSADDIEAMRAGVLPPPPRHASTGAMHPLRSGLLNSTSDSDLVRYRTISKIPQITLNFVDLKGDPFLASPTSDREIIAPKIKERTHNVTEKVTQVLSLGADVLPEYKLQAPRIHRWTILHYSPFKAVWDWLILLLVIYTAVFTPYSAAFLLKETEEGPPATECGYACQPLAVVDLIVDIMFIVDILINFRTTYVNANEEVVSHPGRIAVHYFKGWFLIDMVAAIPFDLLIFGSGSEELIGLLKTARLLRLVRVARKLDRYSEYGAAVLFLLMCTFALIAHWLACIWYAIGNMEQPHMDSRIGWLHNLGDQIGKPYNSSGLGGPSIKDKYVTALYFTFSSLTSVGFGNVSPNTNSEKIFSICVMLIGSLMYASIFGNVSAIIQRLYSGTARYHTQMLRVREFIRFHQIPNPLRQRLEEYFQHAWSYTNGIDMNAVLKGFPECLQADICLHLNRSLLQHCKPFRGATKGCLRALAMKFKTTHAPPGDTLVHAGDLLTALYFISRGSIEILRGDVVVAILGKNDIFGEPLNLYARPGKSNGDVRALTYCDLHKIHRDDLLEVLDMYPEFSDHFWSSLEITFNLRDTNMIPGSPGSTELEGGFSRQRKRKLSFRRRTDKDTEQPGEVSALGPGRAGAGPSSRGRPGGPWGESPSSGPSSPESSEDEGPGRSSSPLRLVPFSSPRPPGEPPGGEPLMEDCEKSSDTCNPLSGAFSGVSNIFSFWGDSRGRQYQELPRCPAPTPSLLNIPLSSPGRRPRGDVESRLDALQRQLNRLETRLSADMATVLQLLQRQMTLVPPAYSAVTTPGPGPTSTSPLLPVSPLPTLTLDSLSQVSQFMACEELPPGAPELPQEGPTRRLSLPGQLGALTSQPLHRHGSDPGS
Compound `N#Cc1ccc(N2CC[C@@H](Nc3c(C(N)=O)cnc4[nH]ccc34)[C@@H](F)C2)nc1` (racemic) [Example 41] came in with a half-maximal inhibitory concentration (IC50) of at least 100000 nM.

For a further test, the target named is T1, human JAK3 kinase domain (Homo sapiens, UniProt P52333).
T1 construct: attached to the N-terminal of the 796-1124 (C-terminal) fragment of the human JAK3 protein; His-tag (N); purchased Carna Biosciences, Inc. (Kobe, Japan); host or cells: baculovirus expression system
T1 sequence (P52333 796-1124): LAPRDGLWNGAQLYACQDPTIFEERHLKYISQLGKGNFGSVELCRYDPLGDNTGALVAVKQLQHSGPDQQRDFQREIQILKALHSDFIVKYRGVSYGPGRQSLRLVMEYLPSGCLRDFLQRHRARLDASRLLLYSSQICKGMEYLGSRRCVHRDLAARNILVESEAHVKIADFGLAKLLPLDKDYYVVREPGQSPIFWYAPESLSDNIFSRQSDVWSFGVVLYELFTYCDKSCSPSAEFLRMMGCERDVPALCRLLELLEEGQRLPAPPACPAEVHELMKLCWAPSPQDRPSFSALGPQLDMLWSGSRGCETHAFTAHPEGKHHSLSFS
The test is described as follows: JAK3 inhibition test. In kind it is biochemical. The settings on record: 20 μM ATP in substrate solution, Biotin-Lyn-Substrate-2, one hour at ambient temperature; compounds of the Examples. On the procedure:
The JAK3 inhibition test was performed as described below
Purified human JAK3 kinase domain was purchased from Carna Biosciences, Inc. (Kobe, Japan). This was afforded as described below.
As an assay buffer, 15 mM Tris-HCl pH 7.5 containing 0.01% Tween 20 and 2 mM DTT (dithiothreitol) was used.
After incubation at ambient temperature for one hour, the plate was washed with a cleaning buffer (50 mM Tris-HCl pH 7.5, 150 mM NaCl, 0.02% Tween 20), and a blocking buffer (a cleaning buffer containing 0.1% bovine serum albumin) was added to the plate. After incubation at ambient temperature for 30 minutes, the blocking buffer was removed, and an HRP-PY-20 solution (afforded by diluting HRP-PY-20 solution with the blocking buffer 500 times) was added. After incubation at ambient temperature for 30 minutes, the plate was washed four times, and a TMB substrate solution (Sigma) was added to the plate. After incubation at ambient temperature for 4 minutes, 1M sulfuric acid was added to stop the reaction. Enzyme activity was measured as absorbance at 450 nm.
`N#Cc1ccc(N2CC[C@@H](Nc3c(C(N)=O)cnc4[nH]ccc34)[C@@H](F)C2)nn1` (racemic) [Example 6, 4-{[(3S,4R)-1-(6-cyanopyridazine-3-yl)-3-fluoropiperidine-4-yl]amino}-1H-pyrrolo[2,3-b]pyridine-5-carboxamide and 4-{[(3R,4S)-1-(6-cyanopyridazine-3-yl)-3-fluoropiperidine-4-yl]amino}-1-1H-pyrrolo[2,3-b]pyridine-5-carboxamide] had an IC50 of 0.76 nM. This lies in the sub-nanomolar range. For `Nc1nn(C2CCCCCC2)c2c1cnc1[nH]ccc12` [Example 12, 1-cycloheptyl-1,6-dihydropyrazolo-[3,4-d]pyrrolo[2,3-b]pyridine-3-amine], 10 nM corresponded to half-maximal inhibition (IC50). On the same count and under the same terms, the value for `C[C@@H]1CN(c2ccc(C#N)cn2)CC[C@@H]1Nc1c(C(N)=O)cnc2[nH]ccc12` (racemic) [Example 65] was 0.78 nM; that for `CNC(=O)C(=O)Nc1nn([C@H]2CN(c3ccc([N+](=O)[O-])cn3)CC[C@H]2C)c2c1cnc1[nH]ccc12` (racemic) [Example 77] was 4.8 nM; that for `C[C@H]1CN(c2ccc(C#N)cn2)CC[C@H]1Nc1c(C(N)=O)cnc2[nH]cnc12` (racemic) [Example 49] was 2.2 nM. Same read-out and setting: the value for `NC(=O)c1cnc2[nH]ccc2c1N[C@@H]1CCN(c2ccc(C(F)(F)F)nn2)C[C@@H]1F` (racemic) [Example 91] was 3.2 nM; that for `N#Cc1ccc(N2CC[C@@H](Nc3c(C(N)=O)cnc4[nH]ccc34)[C@H](F)C2)nc1` (racemic) [Example 82] was 2.7 nM; that for `C[C@@H]1CCN(C(=O)N2CCC=N2)C[C@@H]1n1c(=O)[nH]c2cnc3[nH]ccc3c21` (racemic) [Example 110] was 10 nM. Turning to `N#Cc1ccc(N2CC[C@@H](Nc3c(C(N)=O)cnc4[nH]ccc34)[C@@H](F)C2)nc1` [Example 94], the half-maximal inhibitory concentration (IC50) came to 0.3 nM. Compound `C[C@@H]1CCN(c2ccc(C#N)cn2)C[C@@H]1n1[nH]c(=O)c2cnc3[nH]ccc3c21` (racemic) [Example 72] came in with a half-maximal inhibitory concentration (IC50) of 1.6 nM. The same measure, in the same setting: the value for `N#Cc1ccc(N2CCC(Nc3c(C(N)=O)cnc4[nH]ccc34)CC2)cc1` [Example 58] was 3.4 nM. Same read-out and setting: then `C[C@@H]1CN(c2ccc(C#N)nn2)CC[C@@H]1Nc1c(C(N)=O)cnc2[nH]ccc12` (racemic) [Example 66], with 1 nM; and `C[C@@H]1CCN(C(=O)CC#N)C[C@@H]1n1nc(N)c2cnc3[nH]ccc3c21` (racemic) [Example 21], with 0.52 nM. For `C[C@@H]1CCN(C(=O)CC#N)C[C@@H]1n1[nH]c(=O)c2cnc3[nH]ccc3c21` (racemic) [Example 22], the IC50 was 1.7 nM.

The compound `N#Cc1ccc(N2CC[C@@H](Nc3c(C(N)=O)cnc4[nH]ccc34)[C@@H](F)C2)nc1` (racemic) [Example 41] returned an IC50 of 1.1 nM. `C[C@@H]1CCN(C(=O)N2C[C@@H](F)C[C@H]2C#N)C[C@@H]1n1c(=O)[nH]c2cnc3[nH]ccc3c21` (mixture of isomers) [Example 2, (2R,4R)-4-fluoro-1-{[(3S,4S)-4-methyl-3-(2-oxo-3,6-dihydroimidazo[4,5-d]pyrrolo[2,3-b]pyridine-1(2H)-yl)-piperidine-1-yl]carbonyl}pyrrolidine-2-carbonitrile and (2R,4R)-4-fluoro-1-{[(3R,4R)-4-methyl-3-(2-oxo-3,6-dihydroimidazo[4,5-d]pyrrolo[2,3-b]pyridine-1(2H)-yl)-piperidine-1-yl]carbonyl}pyrrolidine-2-carbonitrile] yielded a 50% inhibitory concentration (IC50) of 0.86 nM. Still for that read-out and setting: the value for `CC[C@@H]1CCCC[C@@H]1n1nc(N)c2cnc3[nH]ccc3c21` [Example 129] was 3.8 nM.

The test is the same for the next values; noted with them: reference compounds produced according to the cited publications, compared in the JAK3 test.
Compound `C[C@@H]1CCN(S(=O)(=O)c2cccnc2)C[C@@H]1N(C)c1ccnc2[nH]ccc12` [Reference compound A, reference compound] yielded a half-maximal inhibitory concentration (IC50) of 230 nM. Same read-out and setting: then `CS(=O)(=O)N1CCCC(Nc2c(Cl)cnc3[nH]ccc23)C1` (centres unmarked) [Reference compound B, reference compound], with 31 nM.

Broadly, the IC50 is the concentration needed to halve the response being measured.
